Laboratory results as given in patent publication US20070166547A1, “Use of a layer consisting of hydrophobic linear, or two-dimensional polycyclic aromatics as a barrier layer or an encapsulation and electric components constructed with a layer of this type and comprising organic polymers” (priority 2003, published 2007).

Key:
[1] = tested on: adenosine-sensitive receptors of thrombocytes; test: ADP-induced aggregation of thrombocytes in vitro (Born method); assay type: cell-based, rabbit; settings: 3 min incubation, ADP 10^−5 M
Experimental: The compounds according to the invention were studied for the effect of aggregation of thrombocytes induced by a preliminary introduction of a solution of an aggregation inductor with a competing introduction of the compounds according to the invention.
The aggregation of thrombocytes was studied by the Born method based on determination of the changes in the optical density of plasma enriched with thrombocytes after its incubation with an aggregation inductor.
Adenozinediphosphoric acid (ADP) was selected as an aggregation inductor, which in fact is an aggregation generator. Use was made of a sample (registration number 885) of the Sigma Diagnostics Company (USA) in final concentration of 10^−5 M.
The experiments were carried out on male rabbits of the “Chinchilla” breed having a mass of 2.7±0.3 kg. 18-24 hours prior to the experiment they were deprived of feed while preserving free access to water.
To obtain plasma enriched with thrombocytes, blood was taken from a cut of a marginal vein of the rabbit ear, the sample was stabilized with 3.8% of sodium citrate solution in a ratio of 9:1 and centrifuged at 200 g (1000 rev/min) for 10 minutes. The top supernatant layer enriched with thrombocytes was transferred by an automatic dropper into a silicone test tube and kept at 37° C. The plasma enriched with thrombocytes contained, on the average, […]. If this content exceeded the specified 3×10^8 blood platelets in 1 liter, this sample was diluted to the necessary concentration with plasma deprived of thrombocytes, which was obtained by centrifuging blood at 650 g during 10 minutes.
The measurements of the optical density of the samples were made on two-channel aggregometer of the “Chronolog” Company (USA). A flask containing 490 mkl of plasma rich with thrombocytes was placed in a device, into which a magnetic agitator covered with Teflon was lowered. The index of maximum amplitude of aggregation (MA) in percent of a fall of the plasma optical density under effect of the aggregation inductor was recorded. The control index MA of plasma was compared with the MA of plasma incubated for 3 minutes with different concentrations of the compounds: from 10^−3 to 10^−7 in vitro experiments or with plasma obtained 15, 30, 60 and 120 minutes after intravenous administration of different doses of the compounds in vivo experiments.
The process of aggregation of thrombocytes was recorded with the help of a computer; on the monitor screen the there were depicted curves reflecting changes of the optical density of the plasma enriched which was taken as a standard 100% compared to the optical density of the non-thrombocyte plasma taken for 0% content of thrombocytes.
Under in vitro conditions a flask was filled with blood plasma enriched with thrombocytes, to which an aggregation inductor ADP was added at a concentration of 10^−5 M, incubated for 3 minutes, and then the compounds according to the invention were introduced directly into the flask. Their action by aggregation of thrombocytes was studied after 3-minute incubation in a wide range of concentrations from 10^−3 to 10^−7 M to minimum concentration of 10^−7 M not inducing no effect of suppressing the aggregation.

[2] = tested on: synthase of nitrogen oxide (NOC); test: Morphine abstinence model: activity of synthase of nitrogen oxide (radiometric, [3H]L-citrulline); assay type: in vivo, rats Wistar; settings: for Activity of NOC, Hypothalamus, Control + Compound / Activity of NOC, Mesencephalon, Control + Compound: compound alone 20.0 mg/kg intramuscularly; for Activity of NOC, Hypothalamus, Control + Morphine + compound / Activity of NOC, Mesencephalon, Control + Morphine + compound: morphinized rats then compound 20.0 mg/kg intramuscularly
plasma hemostasis = test: Prothrombin time after intravenous administration; assay type: in vivo, rabbit; settings: for effect on the prothrombin time index (overall): doses of 15.0, 30.0, 60.0 mg/kg
Experimental: The investigations were performed on 72 rabbits of the “Chinchilla” breed with a mass of 2.5±0.3 kg, who were administered which solutions of compounds 2, 15, 21, 37 in doses of 15, 30 and 60 mg/kg intravenously. The experiments included the thrombin-test (series No. 7300) and the coagulability-test (series No. 5000) purchased from the scientific-and-production association (SPA) “Renam”, thromboplastin (series No. 240600) and calcium chloride purchased from the SPA “MedioLab”
The static parameters of the blood and plasma coagulation (partial activated thromboplastin time, thrombin time, maximum coagulation activity (test for auto coagulation) were determined using the Behnk Electronic coagulometer (Germany). The operating principle of this instrument is based on the fact that the formed blood clot breaks the contacts of the pulse counter in the flask-pin circuit, said pin permanently oscillating in a vertical plane. The moment of formation of the clot is registered by stopping the stop watch hand.
The measurements were effected at a constant temperature of 37° C. maintained by a temperature control unit.
The method of its determination is based on estimation of the coagulation of citrate or oxalic blood plasma, when it is mixed with thromboplastin and a calcium chloride solution. Since under these conditions the time of formation of the clot depends on the content of II, VII, IX and X factors in the investigated plasma sample, now the test is called “thromboplastin time by Quick” or “activity thromboplastin complex”.
Compounds 2, 15, 21, 37 according to the invention at a concentration of 15, 30 and 60 mg/kg were administered to the above experimental animals intravenously and their blood was taken off after 15, 30, 60 and 120 minutes after the administration.
Citrate blood containing 1 part of citrate per 9 parts of native blood was centrifuged at 3000 rev/min for 10 minutes to obtain plasma deprived of thrombocytes.
Added into a test tube in a water bath were 0.1 ml of plasma and 0.1 ml of a thromboplastin solution. After 60 seconds, 0.1 ml of 0.277% solution of calcium chloride was added and the time of reaction T1 in seconds was registered.

Compound | MA - fall of optical density of plasma, % to the standard ([1]; 10^−3 M) | MA - fall of optical density of plasma, % to the standard ([1]; 10^−4 M) | MA - fall of optical density of plasma, % to the standard ([1]; 10^−5 M) | MA - drop of optical density, % compared to control ([1]; 10^−6 M) | MA - drop of optical density, % compared to control ([1]; 10^−7 M) | Activity of NOC, Hypothalamus, Control + Compound [2] | Activity of NOC, Mesencephalon, Control + Compound [2] | T, s After 120 minutes (prothrombin time) (plasma hemostasis; dose 15.0 mg/kg intravenously) | T, s after 15 minutes (prothrombin time) (plasma hemostasis; dose 15.0 mg/kg intravenously) | T, s after 30 minutes (prothrombin time) (plasma hemostasis; dose 15.0 mg/kg intravenously) | T, s after 60 minutes (prothrombin time) (plasma hemostasis; dose 15.0 mg/kg intravenously) | T, s After 120 minutes (prothrombin time) (plasma hemostasis; dose 30.0 mg/kg intravenously) | T, s after 15 minutes (prothrombin time) (plasma hemostasis; dose 30.0 mg/kg intravenously) | T, s after 30 minutes (prothrombin time) (plasma hemostasis; dose 30.0 mg/kg intravenously) | T, s after 60 minutes (prothrombin time) (plasma hemostasis; dose 30.0 mg/kg intravenously) | T, s After 120 minutes (prothrombin time) (plasma hemostasis; dose 60.0 mg/kg intravenously) | T, s after 15 minutes (prothrombin time) (plasma hemostasis; dose 60.0 mg/kg intravenously) | T, s after 30 minutes (prothrombin time) (plasma hemostasis; dose 60.0 mg/kg intravenously) | T, s after 60 minutes (prothrombin time) (plasma hemostasis; dose 60.0 mg/kg intravenously) | effect on the prothrombin time index (overall) (plasma hemostasis) | also measured
O=c1[nH][nH]c(=O)c2nccnc12.[Li] [Compound 25, lithium salt of pyrazine[2,3-d]-6H-pyridazine-5,8-dione] | 48.2 ± 2.9 % | 48.6 ± 2.0 % | 43.4 ± 3.2 % | 50.3 ± 2.1% | 50.1 ± 3.0% | 5.88 ± 0.27 pmol/min/mg of protein | 2.65 ± 0.43 pmol/min/mg of protein |  |  |  |  |  |  |  |  |  |  |  |  |  | Activity of NOC, Hypothalamus, Control + Morphine + compound [2]: 5.23 ± 0.27 pmol/min/mg of protein; Activity of NOC, Mesencephalon, Control + Morphine + compound [2]: 1.97 ± 0.27 pmol/min/mg of protein
Nc1cccc2c(=O)[nH][nH]c(=O)c12.[Na] [Compound 15, sodium salt of 5-amino-benzo[d]-3H-pyridazine-1,4-dione] | 44.8 ± 2.8 % | 46.3 ± 1.7 % | 39.8 ± 3.1 % | 47.3 ± 1.8 % | 49.3 ± 1.4% | 5.45 ± 0.24 pmol/min/mg of protein | 2.60 ± 0.29 pmol/min/mg of protein | 11.5 ± 0.2 s | 11.5 ± 0.2 s | 11.7 ± 0.2 s | 11.2 ± 0.2 s | 11.3 ± 0.2 s | 11.0 ± 0.2 s | 11.2 ± 0.2 s | 11.4 ± 0.2 s | 12.0 ± 0.1 s | 12.0 ± 0.1 s | 12.0 ± 0.1 s | 12.0 ± 0.2 s | have no effect on the prothrombin time index | Activity of NOC, Hypothalamus, Control + Morphine + compound [2]: 5.26 ± 0.28 pmol/min/mg of protein; Activity of NOC, Mesencephalon, Control + Morphine + compound [2]: 1.83 ± 0.23 pmol/min/mg of protein
Nc1ccnc2c(=O)n([C@@H]3O[C@H](CO)[C@@H](O)[C@H]3O)[nH]c(=O)c12 [Compound 2, 4-amino-7-(β-D-ribofuranosile)pyrido[2,3-d]-6H-pyridazine-5,8-dione] | 51.4 ± 2.7 % | 50.4 ± 1.7 % | 48.2 ± 1.0 % | 50.1 ± 2.0% | 50.8 ± 2.2% |  |  | 11.7 ± 0.1 s | 11.7 ± 0.2 s | 11.5 ± 0.2 s | 11.4 ± 0.2 s | 11.2 ± 0.2 s | 11.1 ± 0.2 s | 11.0 ± 0.1 s | 11.3 ± 0.1 s | 11.9 ± 0.1 s | 12.0 ± 0.1 s | 11.9 ± 0.2 s | 12.1 ± 0.2 s | have no effect on the prothrombin time index | 
Nc1ncc2c(=O)[nH][nH]c(=O)c2n1 [Compound 36, 2-amino-pyrimido[4,5-d]-6H-pyridazine-5,8-dione] | 45.8 ± 2.3 % | 46.9 ± 2.4 % | 40.1 ± 2.0 % | 49.3 ± 2.6% | 49.7 ± 1.8% |  |  |  |  |  |  |  |  |  |  |  |  |  |  |  | 
O=c1[nH][nH]c(=O)c2c(Br)ncnc12.[K] [Compound 37, potassium salt of 4-bromine-pyrimido[4,5-D]-6H-pyridazine-5,8-dione] | 46.9 ± 2.7 % | 47.1 ± 2.0 % | 40.6 ± 1.7 % | 48.1 ± 2.9% | 50.1 ± 1.0% | 5.61 ± 0.22 pmol/min/mg of protein | 2.62 ± 0.27 pmol/min/mg of protein | 11.8 ± 0.1 s | 11.6 ± 0.2 s | 11.6 ± 0.1 s | 11.5 ± 0.2 s | 11.1 ± 0.1 s | 11.3 ± 0.1 s | 11.2 ± 0.2 s | 11.4 ± 0.1 s | 12.0 ± 0.1 s | 12.1 ± 0.1 s | 12.0 ± 0.1 s | 12.1 ± 0.2 s | have no effect on the prothrombin time index | Activity of NOC, Hypothalamus, Control + Morphine + compound [2]: 5.59 ± 0.22 pmol/min/mg of protein; Activity of NOC, Mesencephalon, Control + Morphine + compound [2]: 1.85 ± 0.30 pmol/min/mg of protein
Nc1cnc2c(=O)n([C@@H]3O[C@H](CO)[C@@H](O)[C@H]3O)[nH]c(=O)c2n1.[Na] [Compound 21, sodium salt of 3-amino-7-(β-D-ribofuranosile)pyrazine[2,3-d]-6H-pyridazine-5,8-dione] | 47.1 ± 3.0 % | 49.2 ± 2.1 % | 41.8 ± 2.4 % | 49.6 ± 1.7% | 49.7 ± 2.1% |  |  | 11.5 ± 0.2 s | 11.4 ± 0.2 s | 11.5 ± 0.1 s | 11.3 ± 0.1 s | 11.2 ± 0.2 s | 11.2 ± 0.1 s | 11.2 ± 0.1 s | 11.3 ± 0.2 s | 12.0 ± 0.2 s | 12.0 ± 0.2 s | 11.8 ± 0.1 s | 12.1 ± 0.1 s | have no effect on the prothrombin time index | 
